In patent publication US11793816B2, “Methods for enhancing cytotoxic cancer therapy through inhibition of ATG4B” (Northwestern University, priority 2019, dated 2023):

Experiments:
[1] = Toxicity evaluation of NSC185058 in mouse organs (behavior, hematoxylin and eosin staining); type: in vivo, mice; conditions: for pathologic analysis of vital organs (hematoxylin and eosin): 150 mg/kg Monday, brain, heart, liver, lung, kidney, spleen, one week after last dosing
Protocol: FIG. 1. NSC185058 (NSC) effectively distributes to the plasma, the brain, and the liver with minimal toxicity in mice. (A) to (C) Mice were dosed with peanut oil vehicle or ATG4B antagonists NSC185058 at doses of 10 or 50 mg/kg body weight. Plasma, the brain, and the liver tissues were collected at the indicated time points. (A) Total concentrations of the NSC compound in plasma were measured by LC-MS/MS. The PK parameter of NSC in plasma was determined. (B) NSC levels in plasma were determined form 5 min to 24 hr post dosing. The chemical structure of NSC was shown. (C) NSC levels were determined in the plasma, the brain, and the liver tissues at 0.5 and 8 hr post dosing. (D) Hematoxylin and eosin stained section s of indicated organs that were treated with NSC (150 mg/kg body weight) or vehicle on Monday, Wednesday, and Friday for three weeks. Scale bars, 50 μm. n=3 mice/group/time point.
Mice were randomized into two groups before the start of experiment. Animals received peanut oil vehicle (control) or ATG4B antagonists NSC185058 (150 mg/kg body weight) on Monday, Wednesday, and Friday for tow to three weeks. Then, mouse tissues and organs including the liver, the kidney, the lung, the spleen, the heart, and the brain were collected after one week post last dose. All specimens were immediately formalin-fixed for 24-36 hrs and then embedded in paraffin embedded. Five micrometer-thick serial sections were obtained from each samples for standard hematoxylin and eosin staining.
The NSC was administered at the dose of 10 or 50 mg/kg body weight in group of three mice. At the indicated time points spanning a 24 hrs period ([…], 0.5, 1, 2, 4, 8, and 24 hour), the plasma, the brain, and the liver tissues were collected. Plasmid and extracts from the brain and the liver were analyzed by LC-MS/MS using method developed at the Illinois Institute of Technology Research Institute (IITRI). […] Plasma exposure appears to increase beyond the hinge in dose for the dosing range tested. The elimination half-life was 2 and 4 for the 10 and 50 mg/kg dose, respectively. […] To examine whether NSC is tolerated in mouse, we investigated the effect induced by NSC in mouse behavior or by pathologic analysis of vital organs including the brain, the heart, the liver, the lung, the kidney, and the spleen. Mice underwent treatments on Monday, Wednesday, and Friday for three week with either peanut oil (vehicle) or NSC (150 mg/kg body weight) in peanut oil. […] Animal tissues were collected one week after the last dosing and subject for hematoxylin and eosin staining.

[2] = test system: LC3B, p62/SQSTM-1 and LAMP2 in GSC M83 and JK83 cells; experiment: Immunoblot of autophagy markers (LC3B, p62, LAMP2) in GSCs treated with AZD2014 and NSC; type: cell-based; conditions: NSC in the presence of AZD2014
Protocol: FIG. 5. A mTORC1/2 inhibitor AZD2014 inhibited cell survival, mTORC1 and mTORC2 activities in GSCs and glioma cells. (A) GSC M83 and JK83 and glioma cells U87 were treated with indicated concentration of AZD2014 for 72 h, then cell viability was evaluated. (B) GSC M83 and JK83 were treated with the indicated concentration of AZD2014 for 1 hr, or with 2 μM AZD2014 for the specified time. Cells were collected for immunoblot analysis. β-actin was used as a loading control; Results are representative of 2 independent experiments. *P<0.05, **P<0.01, paired two-way Student's t-test. Data are representative from three independent experiments with similar results.
FIG. 6. NSC enhanced the cytotoxicity of a mTORC1/2 inhibitor AZD2014 in GSCs. (A) GSC M83 and JK83 were exposed to DMSO control vs AZD2014 vs NSCs vs AZD2014 in combination with NSC for 72 hr. Cells were collected for immunoblot analysis using indicated antibodies. (B) Immunofluorescence analyses for LC3B puncta in GSC M83 and JK83 cells with indicated treatments. (C and D) GSC M83 and JK83 and/or neural progenitor cells (NPC) were treated as indicated in (A), cell viability was tested at 72 h after treatment (C), and cell apoptosis was measured by Annexin V FACS assay 48 h after treatment. Data are representative from three independent experiments with similar results. […]

[3] = test system: GSC JK83 orthotopic xenografts; experiment: GSC JK83 orthotopic brain tumor xenograft model (survival, BLI, tissue staining); type: in vivo, mice
Source text: FIG. 7. NSC enhance anticancer efficacy of AZD2014 in a patient-derived GSC xenograft model. […] Treatments were started at one week post-implantation. Bioluminescent (BLI) images were taken after the last treatment, and representative images are shown. Scale bar, photons/sec/cm2/steradian. (B) Kaplan-Meier of mice bearing GSC JK83 orthotopic xenografts with indicated treatments. (C) The brains of mice bearing orthotopic xenografts with indicated treatments were collected for immunohistochemical evaluation using indicating antibody. *P<0.05, **p<0.01, […]. Data are representative from three independent experiments with similar results.
Frozen brain tissue sections with GBM xenografts were dried and then fixed in were fixed in 4% paraformaldehyde (PFA) in PBS for 5 minutes. Tissue sections were blocked with AquaBlock (East Coast Bio, North Berwick, Me.) for an hour and then were probed with appropriate primary antibodies 4° C. overnight. Tissue sections were incubated with Alexa 488 or 594 labelled secondary antibodies (1:200) and DAPI-containing mounting solution Vectashield (Vector Laboratories), and representative images were photographed using a Nikon inverted microscope Eclipse Ti-U equipped with a digital camera.
To determine whether the enhancement of AZD2014 therapeutic efficiency by combination with NSC measured in vitro extends to an orthotopic model, GSC JK83 glioma spheres were employed to initiate intracerebral xenografts in mice.

Compound: S=C(Nc1ccccn1)c1ccccn1 [NSC185058, N-pyridin-2-yl-pyridine-2-carbothioamide]
- pathologic analysis of vital organs (hematoxylin and eosin) ([1]; Wednesday, Friday for three weeks): no relevant tissue toxicity
- pathologic analysis of vital organs (hematoxylin and eosin) ([1]; Wednesday, Friday for three weeks, listed as NSC): no morphological changes or abnormal findings
- mouse behavior ([1]; 150 mg/kg in peanut oil, Monday, Wednesday, Friday for three weeks): did not display behavioral changes
- toxic effects on the animals ([1]; mice): did not display any toxic effects
- autophagy markers (LC3B conversion, p62 and LAMP2 degradation) [2]: attenuated autophagy induction
- autophagic flux (LC3B puncta staining) in brain tumor xenografts ([3]; NSC (50 mg/kg) alone): slight impact on autophagic flux
- AZD2014-induced autophagy response in the brain ([3]; NSC (50 mg/kg) in the combination protocol): strongly attenuated AZD2014-induced autophagy response
- mouse survival ([3]; NSC (100 mg/kg), AZD2014 (50 mg/kg), alone or combined, vs control): modest but significant effects on mouse survival
- effect of NSC on inhibition efficiency of AZD2014 on xenograft growth ([3]; combination treatment): enhanced the inhibition efficiency of AZD2014
